Assay results taken from publication PMC9043233, “Newly synthesised oxime and lactone derivatives from Dipterocarpus alatus dipterocarpol as anti-diabetic inhibitors: experimental bioassay-based evidence and theoretical computation-based prediction” (RSC Advances, 2021).
Entries after “also recorded” stand apart in the source; their conditions may differ.

Target: α-glucosidase (Saccharomyces cerevisiae, UniProt P53341)
Assay type: biochemical
Method: The bioassay was carried out on 96 well-plates (200 μL per well). A solution of the test samples in 10% dimethyl sulfoxide (DMSO) was diluted further to concentrations of 1024, 256, 64, 16, 4, and 1 μg mL^−1. Each concentration of the test samples (10 μL) was incubated at 37 °C with phosphate buffer 100 mM (pH 6.8, 40 μL), α-glucosidase 0.4 U mL^−1 (25 μL), and p-nitrophenyl α-D-glucopyranoside 2.5 mM (25 μL). The reaction was stopped after 30 min by adding 100 μL of 0.1 M Na2CO3. The enzyme activities were measured based on the absorbance at λmax 405 nm of the test samples. […] Percentage inhibition was calculated as follows:[38]α-Glucosidase inhibition (%) = [Abs(control) − Abs(sample)]/Abs(control) × 100%

Sequence of α-glucosidase (P53341 whole entry): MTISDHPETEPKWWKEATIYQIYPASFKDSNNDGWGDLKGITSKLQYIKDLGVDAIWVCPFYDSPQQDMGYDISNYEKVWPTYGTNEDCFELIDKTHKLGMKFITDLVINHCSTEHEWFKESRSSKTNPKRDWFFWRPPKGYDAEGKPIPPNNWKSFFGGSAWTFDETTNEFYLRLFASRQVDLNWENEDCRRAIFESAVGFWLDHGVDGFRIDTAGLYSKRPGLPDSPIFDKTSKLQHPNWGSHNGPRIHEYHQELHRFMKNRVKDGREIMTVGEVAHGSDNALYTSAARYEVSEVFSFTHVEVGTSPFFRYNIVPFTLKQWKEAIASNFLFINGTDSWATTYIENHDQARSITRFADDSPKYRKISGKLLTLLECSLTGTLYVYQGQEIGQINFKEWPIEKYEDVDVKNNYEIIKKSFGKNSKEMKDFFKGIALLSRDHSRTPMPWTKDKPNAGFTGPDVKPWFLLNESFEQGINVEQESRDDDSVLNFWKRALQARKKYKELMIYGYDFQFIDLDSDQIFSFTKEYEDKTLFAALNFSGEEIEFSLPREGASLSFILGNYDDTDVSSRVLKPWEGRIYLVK

| SMILES | α-glucosidase inhibition, result in words |
| --- | --- |
| CC(C)=CCC[C@](C)(O)[C@H]1CC[C@]2(C)[C@@H]1CC[C@@H]1[C@@]3(C)CCC(=O)C(C)(C)[C@@H]3CC[C@]12C [Compound 1, dipterocarpol] | weak activity |
| CC(C)=CCCC(C)(O)C1CCC2(C)C1CCC1C3(C)CCC(=NOC(=O)c4ccc(F)cc4)C(C)(C)C3CCC12C [Compound 3g, 20(S)-hydroxydammar-24-ene-3-oximyl-[4-fluorobenzoate]] | no α-glucosidase inhibition; also recorded: no inhibition activity; also recorded: unnoticeable inhibition |
| CC(C)=CCCC(C)(O)C1CCC2(C)C1CCC1C3(C)CCC(=NOC(=O)c4cc(I)cc(I)c4O)C(C)(C)C3CCC12C [Compound 3d, 20(S)-hydroxydammar-24-ene-3-oximyl-[2-hydroxy-3,5-diiodobenzoate]] | loss of their activity; also recorded: no inhibition activity |
| CC(C)=CCCC(C)(O)C1CCC2(C)C1CCC1C3(C)CCC(=NOC(=O)C(C)C)C(C)(C)C3CCC12C [Compound 3m, 20(S)-hydroxydammar-24-ene-3-oximyl isobutyrate] | no inhibition activity; also recorded: unnoticeable inhibition |
| CC1(C)C(=O)CC[C@@]2(C)C1CC[C@]1(C)C2CCC2[C@@H]([C@@]3(C)CCC(=O)O3)CC[C@]21C (stereo partly drawn) [Compound 4, 17-[(5α-methyl)-3,4H-furane-2-one]-25,26,27-tris-nor-dammar-3-one] | no inhibition activity; also recorded: unnoticeable inhibition |
| CC(C)=CCCC(C)(O)C1CCC2(C)C1CCC1C3(C)CCC(=NOC(=O)c4cnc(C)cn4)C(C)(C)C3CCC12C [Compound 3a, 20(S)-hydroxy dammar-24-ene-3-oximyl-[5-methyl-3,6-diazine-1-carboxylate]] | no inhibition activity; also recorded: unnoticeable inhibition |
| CC(C)=CCCC(C)(O)C1CCC2(C)C1CCC1C3(C)CCC(=NOC(=O)c4ccccc4I)C(C)(C)C3CCC12C [Compound 3h, 20(S)-hydroxydammar-24-ene-3-oximyl-[2-iodobenzoate]] | loss of their activity; also recorded: no inhibition activity; also recorded: unnoticeable inhibition |

System: not given

| SMILES | melting point [°C] |
| --- | --- |
| CC1(C)C2CC[C@]3(C)C(CCC4[C@@H]([C@@]5(C)CCC(=O)O5)CC[C@]43C)[C@@]2(C)CC[C@@H]1OC(=O)c1ccccc1O (stereo partly drawn) [Compound 6d, 17-[(5α-methyl)-3,4H-furane-2-one]-3β-(O-salycyloyl)-25,26,27-tris-nor-dammarane] | 186 to 187 |
| CC(=O)O[C@H]1CC[C@@]2(C)C(CC[C@]3(C)C2CCC2[C@@H]([C@@]4(C)CCC(=O)O4)CC[C@]23C)C1(C)C (stereo partly drawn) [Compound 6a, 17-[(5α-methyl)-3,4H-furane-2-one]-3β-(O-acetyl)-25,26,27-tris-nor-dammarane] | 248 to 249 |
| CC1(C)C(=O)CC[C@@]2(C)C1CC[C@]1(C)C2CCC2[C@@H]([C@@]3(C)CCC(=O)O3)CC[C@]21C (stereo partly drawn) [Compound 4, 17-[(5α-methyl)-3,4H-furane-2-one]-25,26,27-tris-nor-dammar-3-one] | 118.4 to 120.3 |
| CC1(C)C2CC[C@]3(C)C(CCC4[C@@H]([C@@]5(C)CCC(=O)O5)CC[C@]43C)[C@@]2(C)CC[C@@H]1O (stereo partly drawn) [Compound 5, 3β-hydroxy-17-[(5α-methyl)-3,4H-furane-2-one]-25,26,27-tris-nor-dammarane] | 195 to 196 |
| CC1(C)C2CC[C@]3(C)C(CCC4[C@@H]([C@@]5(C)CCC(=O)O5)CC[C@]43C)[C@@]2(C)CC[C@@H]1OC(=O)/C=C/c1ccccc1 (stereo partly drawn) [Compound 6e, 17-[(5α-methyl)-3,4H-furane-2-one]-3β-(O-cinnamoyl)-25,26,27-tris-nor-dammarane] | 236 to 238 |
| CC(C)C(=O)O[C@H]1CC[C@@]2(C)C(CC[C@]3(C)C2CCC2[C@@H]([C@@]4(C)CCC(=O)O4)CC[C@]23C)C1(C)C (stereo partly drawn) [Compound 6c, 17-[(5α-methyl)-3,4H-furane-2-one]-3β-(O-isobutyryl)-25,26,27-tris-nor-dammarane] | 206 to 207 |
| CCCCC(=O)O[C@H]1CC[C@@]2(C)C(CC[C@]3(C)C2CCC2[C@@H]([C@@]4(C)CCC(=O)O4)CC[C@]23C)C1(C)C (stereo partly drawn) [Compound 6b, 17-[(5α-methyl)-3,4H-furane-2-one]-3β-(O-pentanoyl)-25,26,27-tris-nor-dammarane] | 134 to 135 |
